System: Jurkat NF-kB luciferase reporter, PMA/ionomycin, luminescence 16 h
Experiment: antigen receptor-induced NF-kB inhibitors, dose response, Jurkat, luciferase reporter, luminescence, B- and T-cell (AID 489004)

Structure (SMILES): CC(=O)OC[C@]12CCC(C)=C[C@H]1O[C@@H]1[C@H](O)[C@@H](OC(C)=O)[C@@]2(C)[C@]12CO2
- IC50: < 160 nM

From PubChem BioAssay AID489004 (Sanford-Burnham Center for Chemical Genomics, 2010)
